Columns and labels:
[1] = Liquid, Closed cell (Static) method
[2] = excess molar enthalpy (molar enthalpy of mixing); xn = mol fraction of the nth substance listed; conditions: 298.15 K, 101 kPa, Liquid, Flow calorimetry

C#CCCCC [1-hexyne]
[1]
Conditions | vapor or sublimation pressure [kPa]
263.15 K | 2.721
273.15 K | 4.893
283.15 K | 8.363
293.15 K | 13.67
298.15 K | 17.22
303.15 K | 21.5
313.15 K | 32.65
323.15 K | 48.09
333.15 K | 68.9
343.15 K | 96.32

C#CCCCC [1-hexyne] + COC(C)(C)C
[2]
Conditions | excess molar enthalpy [kcal/mol]
x1 = 0.1111 | -0.0332
x1 = 0.2113 | -0.0641
x1 = 0.3134 | -0.0884
x1 = 0.389 | -0.1
x1 = 0.4482 | -0.104
x1 = 0.5204 | -0.102
x1 = 0.6206 | -0.0901
x1 = 0.7263 | -0.0712
x1 = 0.8179 | -0.0526
x1 = 0.9011 | -0.0339

CC#CCCC [2-hexyne]
[1]
Conditions | vapor or sublimation pressure [kPa]
263.15 K | 1.393
273.15 K | 2.608
283.15 K | 4.631
293.15 K | 7.845
298.15 K | 10.05
303.15 K | 12.75
313.15 K | 19.99
323.15 K | 30.32
333.15 K | 44.66
343.15 K | 64.09

CC#CCCC [2-hexyne] + COC(C)(C)C
[2]
Conditions | excess molar enthalpy [kcal/mol]
x1 = 0.1527 | -0.0143
x1 = 0.2965 | -0.0263
x1 = 0.4852 | -0.0359
x1 = 0.6624 | -0.0351
x1 = 0.7708 | -0.0287
x1 = 0.8513 | -0.0203

COC(C)(C)C [2-methoxy-2-methylpropane]
[1]
Conditions | vapor or sublimation pressure [kPa]
263.15 K | 6.252
273.15 K | 10.64
283.15 K | 17.31
293.15 K | 27.06
298.15 K | 33.39
303.15 K | 40.86
313.15 K | 59.81
323.15 K | 85.15
333.15 K | 118.27
343.15 K | 160.66

From the NIST ThermoML archive (doi:10.1016/j.fluid.2006.08.007)
